Laboratory results reported in PubChem BioAssay (NCI).
Values joined by “and” are separate entries in the source; they are usually repeats but may differ in a detail not shown here. Equal entries are not always repeated.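 Compound exposure: 48 hours, 5 concentrations, 96-well plates. At the GI50, growth is halved. TGI denotes the concentration required for complete inhibition of growth.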

Key:
Experiment in all cases: growth of human tumour cells (NCI), 48 h
[1] = system: SN12C renal
[2] = system: NCI-H460 lung
[3] = system: ACHN renal
[4] = system: HT29 colon
[5] = system: SF-295 CNS
[6] = system: LOX IMVI melanoma
[7] = system: HL-60(TB) leukemia
[8] = system: MCF7 breast
[9] = system: SK-MEL-2 melanoma
[10] = system: TK-10 renal

Row | SMILES | GI50 [1] | TGI [1] | GI50 [2] | TGI [2] | GI50 [3] | TGI [3] | GI50 [4] | TGI [4] | GI50 [5] | TGI [5] | GI50 [6] | TGI [6] | GI50 [7] | TGI [7] | GI50 [8] | TGI [8] | GI50 [9] | TGI [9] | GI50 [10] | TGI [10]
1 | CCN(CC)CCCC(C)Nc1ccnc2cc(Cl)c(SCc3ccccc3)cc12 (stereo unspecified) | 1700 nM | 4070 nM | 1770 nM | 4540 nM | 1300 nM | 2730 nM | 338 nM | 1130 nM | 1320 nM | 3020 nM | 199 nM | 552 nM | 1810 nM | 4230 nM | 506 nM | 1720 nM | 1640 nM | 3220 nM | 512 nM | 1600 nM
2 | COc1cccc(-c2cc(NCc3ccc4c(c3)OCO4)nc(N)n2)c1 | 103 nM | 22000 nM | 42.8 nM | 9590 nM | 240 nM | 29300 nM | 42.3 nM | 6840 nM | 59.7 nM | 14400 nM | 77.3 nM | 19400 nM | 32.4 nM | 296 nM | 76.5 nM | 13900 nM | 219 nM | 17900 nM | 8960 nM | 29000 nM
3 | COc1ccc(OC)c(/C=C/c2cnnc3ccccc23)c1 |  | > 10000 nM |  | > 10000 nM |  | > 10000 nM |  | > 10000 nM |  | > 10000 nM |  | > 10000 nM |  | > 10000 nM |  | > 10000 nM |  | 6430 nM |  | > 10000 nM
4 | Cc1cccc2c(=O)c3c(sc12)c(NCCN)nc1ccccc13 | 754 nM | 1540 nM | 768 nM | 1540 nM | 762 nM | 1430 nM | 819 nM | 1610 nM | 886 nM | 1700 nM | 783 nM | 1480 nM | 864 nM | 1740 nM | 678 nM | 1420 nM | 995 nM | 2150 nM | 1150 nM | 1970 nM
5 | O=C(Nc1cccc(-n2cc(-c3ccncc3)c(-c3ccc(O)c(Cl)c3)n2)c1)Nc1ccc(Cl)c(C(F)(F)F)c1 | 2990 nM | 13400 nM | 2560 nM | 9510 nM | 2640 nM | 10900 nM | 3390 nM | 11300 nM | 1880 nM | 5120 nM | 1610 nM | 3210 nM | 2550 nM | 6380 nM | 1800 nM | 4340 nM | 2140 nM | 4280 nM | 2960 nM | 7160 nM
6 | N=C(N)c1ccc(-c2ccc(-c3ccco3)o2)cc1F | 2010 nM | 6530 nM | 1980 nM | 4170 nM | 1840 nM | 3810 nM | 1290 nM | 3300 nM | 1670 nM | 3810 nM | 1600 nM | 3050 nM | 2190 nM | 4290 nM | 1830 nM | 4840 nM | 2090 nM | 3720 nM | 1690 nM | 3240 nM
7 | CCN1CCN(Cc2ccc3cc(C(=O)Nc4cc(NC(=O)c5ccc6c(c5)OCCO6)ccc4F)ccc3n2)CC1 | 52.4 nM | 1820 nM | 37 nM | 563 nM | 27.4 nM | 267 nM | 52.8 nM | 11900 nM | 47.5 nM | 2920 nM | 34.3 nM | 1430 nM | 23.8 nM | 182 nM | 183 nM | 6750 nM | 29 nM | 118 nM | 42.9 nM | 4290 nM
8 | CCOC(=O)c1c2c(n3cccc(F)c13)C(=O)c1ncccc1C2=O | 457 nM | 17600 nM | 26.3 nM | 1120 nM | 79.1 nM | 2430 nM | 1340 nM | 5420 nM | 500 nM | 3690 nM | 93.2 nM | 1920 nM | 1030 nM | 3690 nM | 57.2 nM | 1270 nM | 4810 nM | 73700 nM | 216 nM | 27200 nM
9 | CC(=O)O[C@@H]1CC(=O)O[C@@H]2C[C@@H](CC/C(Cl)=C/C/C=C\1C)O[C@@H]2CO | > 25000 nM | > 25000 nM | > 25000 nM | > 25000 nM | > 25000 nM | > 25000 nM | > 25000 nM | > 25000 nM |  | > 25000 nM | > 25000 nM | > 25000 nM | > 25000 nM | > 25000 nM | > 25000 nM | > 25000 nM | > 25000 nM | > 25000 nM | > 25000 nM | > 25000 nM
10 | O=C(O)C#Cc1ccc([N+](=O)[O-])cc1 |  | > 100000 nM |  | > 100000 nM |  | > 100000 nM |  | > 100000 nM |  | > 100000 nM |  | > 100000 nM |  | > 100000 nM |  | > 100000 nM |  | > 100000 nM |  | > 100000 nM
11 | COc1ccc2cc(C(=O)/C=C/c3ccccc3OC)ccc2c1 | 1970 nM | 6820 nM |  | > 51700 nM | 2970 nM | 15600 nM | 1670 nM | > 45500 nM | 1590 nM | 7200 nM | 863 nM | 3890 nM | 2550 nM | 8140 nM |  | > 100000 nM | 10300 nM | 35200 nM | 2890 nM | > 40100 nM
12 | COC(=O)C12OCC34C(CC5C(C)=CC(=O)C(O)C5(C)C3C(O)C1O)OC(=O)C(OC(=O)CC(C)C)C24 (stereo unspecified) | 82.9 nM and 50 nM |  |  |  | 19.3 nM | 300 nM and 174 nM | 58.8 nM |  | 77 nM |  | < 33.6 nM and 50 nM |  | < 41.7 nM and 50 nM |  | 0.602 nM | 2.21 nM | 56.2 nM and 316 nM |  | 16.6 nM | 160 nM and 477 nM
13 | O=C(Nc1cccc2ccccc12)c1cc2ccccc2cc1O | 2400 nM | 9970 nM | 2060 nM | 5870 nM | 2440 nM | 7890 nM | 3550 nM | 12400 nM | 1830 nM | 4320 nM | 2720 nM | 12200 nM | 2370 nM | 8220 nM | 1700 nM | 7710 nM | 2140 nM | 4690 nM | 2800 nM | 6720 nM
14 | Cc1cc(Cl)ccc1Nc1nc(C(F)(F)F)ccc1C(=O)N/N=C/c1c(Cl)cccc1Cl | 262 nM | > 100000 nM | 322 nM | 4390 nM | 298 nM | 2030 nM | 443 nM | > 100000 nM | 74.1 nM | 376 nM | 257 nM | > 100000 nM | 229 nM | 530 nM | 233 nM | 749 nM | 272 nM | 1330 nM | 316 nM | 1790 nM
15 | COc1cc([C@@H]2c3cc4c(cc3[C@H](O)[C@H]3COC(=O)[C@@H]23)OCO4)cc(OC)c1OC | 677 nM and 400 nM | > 100000 nM | 371 nM and 138 nM | > 10000 nM and 3070 nM | 568 nM and 1410 nM | > 100000 nM | 360 nM and 104 nM | > 3940 nM and 1060 nM | 285 nM and 104 nM | 1610 nM | 460 nM and 623 nM | > 100000 nM | 293 nM and 454 nM | > 2810 nM and 64100 nM | 321 nM and 61.2 nM | > 100000 nM | 445 nM and 584 nM | > 100000 nM | 743 nM | 9860 nM
16 | COc1cc2c3c(n(CCCN4CCOCC4)c(=O)c2cc1OC)-c1cc2c(cc1C3=O)OCO2 | 821 nM | > 100000 nM | 277 nM | > 100000 nM | 500 nM | > 100000 nM | 5620 nM | > 67000 nM | 137 nM | > 38800 nM |  | > 35000 nM | 3570 nM | > 47000 nM | 368 nM | > 36300 nM | > 100000 nM | > 100000 nM | 34600 nM | > 94300 nM
17 | C(#Cc1ccccc1C#Cc1ccccn1)c1ccc(OCCCCCCOc2ccc(C#Cc3ccccc3C#Cc3ccccn3)cc2)cc1 | 2350 nM | 11600 nM | 1620 nM | 6650 nM | 1200 nM | 7950 nM | 8160 nM | 14900 nM | 1320 nM | 5080 nM | 229 nM | 5710 nM | 108 nM | 1440 nM | 1620 nM | 8290 nM | 1870 nM | 11100 nM | 5330 nM | 15800 nM
18 | O=C(O)c1cn(C2CC2)c2cc(N3CCN(C(=O)Nc4nc(-c5ccc(Cl)cc5)cs4)CC3)c(F)cc2c1=O | 3530 nM | > 100000 nM | 1760 nM | > 100000 nM | 1630 nM | 22000 nM | 2990 nM | > 100000 nM | 3030 nM | 23700 nM | 567 nM | > 100000 nM | 1470 nM | 4760 nM | 2550 nM | > 100000 nM | 2400 nM | 6850 nM | 4110 nM | > 100000 nM
19 | Clc1cccc(Cc2cn3cc(-c4ccccc4)nc3s2)c1 | 7410 nM | > 100000 nM | 3310 nM | > 100000 nM | 2770 nM | > 100000 nM | 11800 nM | > 100000 nM |  |  | 629 nM | > 100000 nM | 9130 nM | > 100000 nM | 2790 nM | > 100000 nM | 3280 nM | 34400 nM | 22000 nM | > 100000 nM
